Source: US20110269790A1, “NOVEL THIENOPYRIDINES AS PHARMACOLOGICALLY ACTIVE AGENTS” (priority 2009, published 2011)

Columns and labels:
rats = assay: Collagen induced arthritis; assay type: in vivo, rat; conditions: collagen induced study; BN compounds 100 mg/kg, Indomethacin 2.5 mg/kg
Excerpt: Group I—Normal Control; Group II—Arthritic control; Group III—Arthritic rats administered with Synthetic compound BN-4; Group IV—arthritic rats administered with compound BN-14; Group V—arthritic rats administered with BN-16; Group VI—arthritic rats administered with standard drug indomethacin. […] The test and indomethacin doses continued up to 21 days in FCA induced model and 24 days in collagen induced model. […] Before sacrificing the animals, blood was collected and used for estimation of total leukocyte count, TNF-α and IL-1β. […] In collagen induced study the total WBC count was analyzed by using cell counter and count as follows; […]

Wistar rats [1] = assay: Dextran induced rat paw edema model; assay type: in vivo; conditions: 3 hrs after Dextran
Procedure: Anti-inflammatory activity of test compounds was evaluated in Wistar rats employing method of Winter et al (1963) and Diwan et al (1989). Over night fasted rats were grouped into different test groups and standard group consisting 6 animals in each group. Test compounds were administered orally one hour before dextran challenge as gum acacia suspension. Animals in the standard group received Indomethacin at dose of 10 mg/kg. After one hour dextran was injected into the right hind paw by sub plantar route. A zero hour paw volume was measured for the rats using digital plethysmometer (Ugo Basile, Italy) before the administration of Dextran for all groups. Paw volumes were again measured 3 hrs after the challenge of Dextran. The percent inhibition of paw volume for each rat in treated groups was calculated by comparing with mean paw volume of control group and expressed as mean (±SE) percent inhibition of paw volume for each test group.

Wistar rats [2] = assay: Freund's complete adjuvant (FCA) induced arthritis; assay type: in vivo, rat; conditions: BN compounds 100 mg/kg; for % Of inhibition, 5th Day / % Of inhibition, 12th Day / % Of inhibition, 18th Day / Body weight index, 21st DAY / Paw volume, 5th Day / Paw volume, 12th Day / Paw volume, 18th Day / Paw volume, 21st Day: indomethacin 2.5 mg/kg daily; for Body weight index, 21st DAY / Body weight index, 1st DAY: FCA study; for Paw volume, 5th Day / Paw volume, 12th Day / Paw volume, 18th Day / Paw volume, 21st Day: in mL (unit assumed); for Body weight index, 1st DAY: indomethacin 2.5 mg/kg; for Total WBC count: termination day, FCA model, Indomethacin 2.5 mg/kg
Procedure: Induction of Arthritis: Arthritis was induced by injecting Freund's complete adjuvant (FCA. Required quantity of FCA was weighed and suspension made with paraffin oil (DIFCO Laboratories) and administered at dose of 0.5 mg/rat in subplantar region of the right hind paw. After 7 days, a booster injection was given to all animals to hind paws.
Experimental Design Animals were divided into 6 groups of 6 rats each and were designated as:
(§1) Group I—Normal Control; Group II—Arthritic control; Group III—Arthritic rats administered with Synthetic compound BN-4; Group IV—arthritic rats administered with compound BN-14; Group V—arthritic rats administered with BN-16; Group VI—arthritic rats administered with standard drug indomethacin. Administration of test compounds and indomethacin started on the same day of adjuvant injection at the dose of 100 and 2.5 mg/kg respectively. The test and indomethacin doses continued up to 21 days in FCA induced model and 24 days in collagen induced model. During the study period the paw volumes were measured on 5th, 12th, 18th and 21 st days and the weight of the animals was also recorded at different time intervals. At each time point the percentage of inhibition of paw volume was calculated with reference to mean paw volume of control group In FCA model, animals were sacrificed on 21st day by cervical dislocation. Before sacrificing the animals, blood was collected and used for estimation of total leukocyte count, TNF-α and IL-1β.
Clinical Assessment of Adjuvant arthritis: Rats were examined for visual appearance of arthritis and the lesion of erythema and inflammation of periarticular tissues on 14th day, 18th day and on 21st day. Arthritis scoring scale as follows:
2=Mild swelling and erythema of the limb 3=Gross swelling and erythema of the limb 4=Gross deformity and inability to use the limb
The arthritis score of each rat was the sum of the scores of both hind limbs and maximum score was being 8 for each rat.

TNF-α [3] = assay: In vitro TNF-α estimation in LPS treated RAW 264.7 macrophages (ELISA); assay type: cell-based, mouse
Procedure: Cell Culture and Treatment: The RAW 264.7 (mouse macrophages, national center for cellular sciences) cells were grown in plastic T-25 culture flask in Dulbeccos modified eagles medium (DMEM) without phenol red supplemented with 10% heat activated serum (heating at 57° C. for 30 minutes, 100 μg per ml penicillin, 200 μg per ml streptomycin, 2 mmol L-glutamine, 1% antibiotic/Anti mycotic solution (GIBCO/SRL) under 5% co2 with 85% relative humidity at 37° C. After 2-3 days cells were removed from the culture flask by tripsinizing the cells with Trypsin EDTA solution. Cell count and viability was performed using a standard Trypan blue dye exclusion method. The cell concentration was adjusted to 1×10^5 cells per ml in each well with the same media in the 12 well plates. After 24 hrs incubation the media was removed from each well replaced with a fresh one containing different concentrations (50 μg, 25 μg, 12.5 μg) of the synthetic compounds BN-4, BN-14 and BN-16 along with 10 μg/ml LPS, where as normal control (PBS) and positive controls (Dexa, Roli) LPS (10 μg/ml), were added. 200 μl of media from each well was collected at 6 hrs for the estimation of TNF-α and after 24 hrs for Nitric Oxide respectively. The adherent cells, which remained after removing the media was subjected to […] for determining the cytotoxicity of compounds at selected concentrations
Measurement of TNF-α: TNF-α was assayed by ELISA kit supplied by R&D systems. A volume of 100 μl of 0.8 μg per ml, goat anti mouse TNF-a in PBS was coated and incubated overnight at room temperature. Plates were washed 3 times with PBS/0.05% Tween 20 and blocked by the addition of 1% BSA in PBS at room temperature for 2 hrs. Plates were washed 3 times again with same buffer and 100 μl of samples and standards (Recombinant mouse TNF-α with 1% BSA in PBS) of different concentrations were added in triplicates and incubated for 2 hrs at RT. After washing 100 μl of goat anti mouse TNF-α conjugated with HRP were added and incubated for 2 hrs at RT. Then 100 μl of TMB substrate ([…] with H2O2) was added to all wells. After 20 min stop solution was added to all the wells, and measured the optical density at 450 nm. TNF-α concentration was calculated from standard curve by regression analysis.

TNF-α [4] = assay: TNF-α in rat paw tissue, FCA model (ELISA); assay type: in vivo; conditions: termination day
Procedure: as §1
In FCA induced study paw tissues were collected on termination day and estimated TNF-α and IL-1β levels for all the groups by ELISA method.

[5] = 50 μg/ml, 25 μg/ml, 12.5 μg/ml with LPS 10 μg/ml, 6 hrs

Compound | Total WBC count (rats) | % Inhibition (Wistar rats [1]; 50 mg/kg oral) [%] | Percentage Swelling (50 mg/kg) (Wistar rats [1]; 50 mg/kg oral) | % Inhibition (Wistar rats [1]; 100 mg/kg oral) [%] | Percentage Swelling (100 mg/kg) (Wistar rats [1]; 100 mg/kg oral) [%] | % Inhibition (Wistar rats [1]; 200 mg/kg oral) [%] | Percentage Swelling (200 mg/kg) (Wistar rats [1]; 200 mg/kg oral) [%] | % Of inhibition, 5th Day (Wistar rats [2]) [%] | % Of inhibition, 12th Day (Wistar rats [2]) [%] | % Of inhibition, 18th Day (Wistar rats [2]) [%] | Body weight index, 21st DAY (Wistar rats [2]) | Paw volume, 5th Day (Wistar rats [2]) | Paw volume, 12th Day (Wistar rats [2]) | Paw volume, 18th Day (Wistar rats [2]) | Paw volume, 21st Day (Wistar rats [2]) | Body weight index, 1st DAY (Wistar rats [2]) | Total WBC count (Wistar rats [2]) | Inhibition of TNF-a production (TNF-α [3]; 12.5 μg/ml with LPS) | Inhibition of TNF-a production (TNF-α [3]; [5]) | % Inhibition (TNF-α) (TNF-α [4]) [%]
Cc1sc2nc3c(c(N)c2c1C)CCCCC3 [BN-4, 2,3-dimethyl-6,7,8,9-tetrahydro-5H-cyclohepta[b]thieno[3,2-e]pyridin-4-amine] | 13.57±0.63 | 12.17 ± 1.14 | 69.96 ± 4.06 % | 13.57 ± 1.71 | 50.01 ± 1.09 | 32.71 ± 4.45 | 38.52 ± 2.60 | 36.41 ± 3.84 | 42.88 ± 8.45 | 40.71 ± 7.59 | 199.87 ± 4.76 | 1.51 ± 0.09 | 1.42 ± 0.21 | 1.55 ± 0.20 | 1.63 ± 0.12 | 155.15 ± 3.1 | 18.53±1.36 | not shown inhibition | good inhibition | 42.9 ± 3.78
Nc1c2c(nc3sc4c(c13)CCC4)CCCC2 [BN-14, 2,3,6,7,8,9-Hexahydro-1H-cyclopenta[4,5]thieno[2,3-b]quinolin-10-amine] | 14.88±2.64 | 21.29 ± 4.69 | 65.36 ± 2.91a % | 24.83 ± 0.47 | 41.63 ± 2.78 | 38.54 ± 4.26 | 36.09 ± 2.79 | 19.47 ± 1.38 | 37.90 ± 4.12 |  | 201.51 ± 6.61 | 1.92 ± 0.03 | 1.54 ± 0.10 | 1.51 ± 0.14 | 1.40 ± 0.02 | 158.02 ± 2.51 | 19.70±0.66 |  | good inhibition | 38.03 ± 9.73
Nc1c2c(nc3sc4c(c13)CCC4)CCCCC2 [BN-16, 1,2,3,6,7,8,9,10-Octahydrocyclohepta[b]cyclopenta[4,5]thieno[3,2-e]pyridine-11-amine] | 15.70±1.28 | 18.30 ± 3.25 | 61.80 ± 1.18a % | 30.90 ± 4.32 | 40.09 ± 4.24 | 41.00 ± 3.86 | 31.85 ± 2.09 | 23.95 ± 4.49 | 39.11 ± 1.68 | 37.53 ± 09.04 | 206.38 ± 4.76 | 1.81 ± 0.11 | 1.51 ± 0.10 | 1.64 ± 0.13 | 1.59 ± 0.09 | 157.85 ± 2.08 | 17.3±1.63 |  | good inhibition | 37.42 ± 5.57
COc1ccc2c(c1)c(CC(=O)O)c(C)n2C(=O)c1ccc(Cl)cc1 [Indomethacin, reference compound] | 19.70±2.23 |  |  |  |  |  |  | 37.25 ± 2.36 | 45.43 ± 3.56 | 45.80 ± 6.09 | 182.68 ± 4.91 | 1.49 ± 0.06 | 1.35 ± 0.09 | 1.42 ± 0.02 | 1.43 ± 0.08 | 157.85 ± 2.08 | 20.67±0.59 |  |  | 29.06 ± 0.06
